Consider 3 molecules from PMC10511816 (The Journal of Biological Chemistry, 2023).

Structures are written as SMILES.

For test [1], the target named is XOR. As to conditions: read-out: Ki for the conversion of xanthine to uric acid; cited from earlier work.
The target in test [2] is T1, Purine nucleoside phosphorylase (PNP) (Homo sapiens, UniProt P00491).
T1 construct: purchased Sigma-Aldrich; host or cells: E. coli
T1 sequence (P00491 1-289): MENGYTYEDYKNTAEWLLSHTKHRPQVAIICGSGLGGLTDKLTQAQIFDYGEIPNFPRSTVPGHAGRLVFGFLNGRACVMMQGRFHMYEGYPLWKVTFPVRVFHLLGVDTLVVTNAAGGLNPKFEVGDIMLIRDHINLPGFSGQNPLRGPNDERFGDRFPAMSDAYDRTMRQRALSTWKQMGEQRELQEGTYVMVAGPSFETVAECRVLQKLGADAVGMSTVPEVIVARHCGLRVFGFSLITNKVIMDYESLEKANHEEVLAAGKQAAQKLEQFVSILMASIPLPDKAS
On the set-up: method as in PMID 5653179, PMID 121041. Conditions: cited from earlier work.

Test [3] addresses T2, XOR (Bos taurus, UniProt P80457).
T2 construct: Bovine milk was obtained from the animal farm of the Nippon Veterinary and Life Science University; from tissue; host or cells: bovine milk
The test can be described thus: XOR kinetics with phenazine methosulfate / cytochrome c reduction (550 nm). The class given is biochemical, bovine. Conditions: XOR, PMS. Here is the method:
Therefore, phenazine methosulfate was used to induce direct, rapid reoxidation of the molybdenum center ([22], [23]).
Bovine milk was obtained from the animal farm of the Nippon Veterinary and Life Science University. […] The dehydrogenase form of the enzyme (XDH) was obtained by reacting XO immediately upon purification with 5 mM DTT at pH 8.5, 25 °C for 1 h. XO and XDH assays were carried out at 25 °C under aerobic conditions. […] A total of 500 μM β-NAD^+ was added to the same reaction solution for XDH activity. Physiological conditions such as pH 7.4 (0.1 M potassium phosphate buffer (KPB), 0.2 mM EDTA) and the addition of 50 μM β-NADH were also used. […] In addition, the enzyme reaction solution was quenched with perchloric acid and neutralized with K2CO3, with products analyzed using HPLC as described below. Spectrophotometric data were analyzed using UV-Probe software Ver. 2.70 or LabSolutions UV-Vis Ver. […] Kinetic parameters were determined from nonlinear curve fits of raw data using GraphPad Prism 9 software.
A295 indicates the concentration of uric acid yielded by XOR. […] A295 indicates the concentration of uric acid yielded by XOR. Figure S2. The XOR inhibition mode of oxypurinol.A–G, Lineweaver-Burk plots were generated to visualize data and estimated the inhibition patterns. Data are representative of least two independent experiments. […] Figure S3. […] B, mode of inhibition of oxypurinol on the inosine degradation reaction of PNP. […] 0, 250, 375, 500, 750 and 1000 μM of oxypurinol were used. […] The rate of NAD^+ conversion to NADH was measured at A340 nm.

T2 sequence (P80457 whole entry): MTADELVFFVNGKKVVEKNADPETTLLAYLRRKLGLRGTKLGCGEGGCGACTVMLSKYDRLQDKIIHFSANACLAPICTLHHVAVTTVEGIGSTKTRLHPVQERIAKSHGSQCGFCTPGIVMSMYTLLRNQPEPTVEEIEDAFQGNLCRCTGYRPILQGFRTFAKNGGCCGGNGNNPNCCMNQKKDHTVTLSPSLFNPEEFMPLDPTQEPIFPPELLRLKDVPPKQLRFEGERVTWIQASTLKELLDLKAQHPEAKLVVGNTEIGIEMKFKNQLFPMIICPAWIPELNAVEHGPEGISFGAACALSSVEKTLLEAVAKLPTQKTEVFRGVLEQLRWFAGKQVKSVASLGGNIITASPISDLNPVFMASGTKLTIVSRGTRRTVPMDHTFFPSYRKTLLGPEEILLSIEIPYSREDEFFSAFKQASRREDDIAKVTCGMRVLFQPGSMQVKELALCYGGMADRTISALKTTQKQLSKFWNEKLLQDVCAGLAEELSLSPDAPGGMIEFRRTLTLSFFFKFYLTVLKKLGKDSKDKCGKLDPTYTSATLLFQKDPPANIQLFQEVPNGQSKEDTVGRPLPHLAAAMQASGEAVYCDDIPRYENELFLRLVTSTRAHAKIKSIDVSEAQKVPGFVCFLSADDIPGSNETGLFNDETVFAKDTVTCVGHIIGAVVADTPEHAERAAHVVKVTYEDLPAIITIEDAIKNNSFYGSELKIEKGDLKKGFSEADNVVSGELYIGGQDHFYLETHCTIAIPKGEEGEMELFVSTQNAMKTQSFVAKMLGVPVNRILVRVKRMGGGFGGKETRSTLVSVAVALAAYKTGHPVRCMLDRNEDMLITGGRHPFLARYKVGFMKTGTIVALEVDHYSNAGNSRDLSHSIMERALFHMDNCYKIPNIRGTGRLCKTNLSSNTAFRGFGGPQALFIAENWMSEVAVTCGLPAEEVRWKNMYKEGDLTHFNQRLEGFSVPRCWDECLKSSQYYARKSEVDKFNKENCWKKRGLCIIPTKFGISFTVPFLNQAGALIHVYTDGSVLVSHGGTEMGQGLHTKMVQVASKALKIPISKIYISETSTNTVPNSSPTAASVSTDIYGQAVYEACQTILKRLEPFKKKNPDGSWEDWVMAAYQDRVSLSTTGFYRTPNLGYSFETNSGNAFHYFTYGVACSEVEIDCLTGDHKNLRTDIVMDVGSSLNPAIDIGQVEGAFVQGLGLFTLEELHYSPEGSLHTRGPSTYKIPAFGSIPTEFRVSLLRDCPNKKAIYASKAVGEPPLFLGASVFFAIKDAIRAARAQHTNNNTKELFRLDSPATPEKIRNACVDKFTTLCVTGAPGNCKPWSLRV

Regarding `COc1cc(-c2cnn3c(=O)nc[nH]c23)ccc1[S+]([O-])c1ccccc1` (stereo not shown) [BOF], the Ki (in general, the dissociation constant of the complex between target and ligand, obtained from inhibition or displacement) in test [1] was < 0.01 µM.
Consider `O=c1ncnc2n([C@H]3O[C@@H](CO)[C@H](O)[C@@H]3O)[nH]cc1-2` [ribosyl derivative], for which the Ki in test [2] was > 200 µM.
As to `Cc1nc(-c2ccc(OCC(C)C)c(C#N)c2)sc1C(=O)O` [Febuxostat], the Types of inhibition entry in test [3] (substrate hypoxanthine) and in test [3] (substrate xanthine) was “Mixed” throughout.
